# Source: US5171851A, “Imidazole substituted benzoxazine or benzothiazine derivatives” (Dong-A Pharm. Co., Ltd., priority 1990, dated 1992)
# Where two headings read alike, the source gives them in different places.
# Columns and labels:
# [1] = test system: blood perfused papillary muscle preparation; test: contractile power on blood perfused papillary muscle preparation; set-up: species or system dog; details: for activation at 0.003 mg / activation at 0.01 mg / activation at 0.03 mg / activation at 0.001 mg: Canis lupus familiaris, read-out: change of contractivity (%); for activation at 0.003 mg: dose 3.0 ug; for ED 30 (developed tension of papillary muscle): least-square method; for activation at 0.01 mg: dose 10.0 ug; for activation at 0.03 mg: dose 30.0 ug; for activation at 0.001 mg: dose 1.0 ug
# Experimental: Determination of contractile power on blood perfused papillary muscle preparation:
# Dogs of either sex weighing 7-12 kg were anesthetized with sodium pentobarbital (30 mg/kg, i.v.). Heparin of 1000 unit/kg was administered to each animal intravenously. The animals were exsanguinated and heart was removed. The preparation was perfused through the cannulated anterior septal artery (ASA) with arterial blood from a donor dog at constant pressure of about […]. Donor dogs were anesthetized with sodium pentobarbital (30 mg/kg, i.v.). Heparin of 1000 units/kg was administered intravenously. The papillary muscle was stimulated with rectangular pulses of 5- ms duration and about 1.5 times the threshold voltage at a rate of 120 stimuli/min through bipolar electrodes. Resting tension was made to 2 g. The developed tension of papillary muscle was determined by Isometric tresducer. Detailed method was reporated by Matsumoto in Am J. Physiol. 218, 1459-1463 (1970). Test compound at the doses of 10-30 ul was injected in flowing blood in the gum tube connected to catheter. The inotropic effect of the test compounds was shown by change percent of developed tension compared with that prior to the administration of the test compounds.
# [2] = test system: blood-perfused sino-atrial preparation; test: sinus rate on blood-perfused sino-atrial preparation; set-up: species or system dog; details: for activation at 0.003 mg / activation at 0.001 mg / activation at 0.01 mg / activation at 0.03 mg: Canis lupus familiaris, read-out: change of sinus rate (%); for activation at 0.003 mg: dose 3.0 ug; for activation at 0.01 mg: dose 10.0 ug; for activation at 0.03 mg: dose 30.0 ug
# Experimental: Determination of sinus rate on blood-perfused sino-atrial preparation: Mongrel gods of either sex weighing 7-12 kg were anesthetized with sodium pentoba rbital (30 mg/kg i.v.). Heparin ob 1000 unit/kg was administered to each animal intravenously and the animals were exsanguinated. Heart was removed and put in Krebs-Henseleit solution. Catheter was inserted into blood vessel between right coronary artery and SA nodes. Right atrium and catheter were together removed. Blood supplied from carotid artery of donor dog of either sex weighing 15-25 kg, was supplied to blood vessel cather from right coronary artery and SA node under constant blood pressure of 100 mmHG by use of Peristaltic pump. The resting tension of right atrial muscle was made to 2g. The sinus rate triggered by spontaneous contraction of atrial muscle was determined on Narco physiograph Narcotrace 4). Detailed method was reported by S. Chiba, et al. in Japanese Pharmacology 25, 433-439(1975). Doses of test compounds were injected into flowing blood in gum tube connected to the near part of the catheter inserted into right coronary artery. The effects on sinus rate were shown as percent compared with the sinus ratio prior to the injection of the test compounds.
# anesthetized cats = test: cardiotonic effect on anesthetized cats; assay type: in vivo, cat; details: Felis catus; for change in vivo at 0.01 mg/kg: 0.01 mg/Kg iv; for change in vivo at 0.03 mg/kg: 0.03 mg/Kg iv; for change in vivo at 0.1 mg/kg: 0.1 mg/Kg iv
# Experimental: Determination of cardiotonic effect on anesthetized cats: Male cats weighing about 3 kg were anesthetized with sodium pentobarbital (30 mg/kg, i.p.). The same anesthetic was infused intravenously at the does of 4 mg/kg/hr in order to maintain the anesthetic state and mechanically ventilated through a cuffed endotracheal tube, chest was opened by a midline incision and a catheter for measuring left ventricular pressure was inserted through apex into left ventricle and the left ventricular pressure was measured. LVdP/dt was determined by use of diffentiator from the left ventricular pressure. Systemic blood pressure was measured by the left femoral artery by a pressure transducer and heart rate was measured by a cardiotachometer triggered by blood pressure pulses. Test compound was injected into the femoral vein by use of cannule. After completion of the surgical procedures, the cats were allowed to recover about 30 minutes before drug administration. These compounds were dissolved in 0.9% physiological saline and diluted with saline. Solvent such as DMSO or DMF was also used, if necessary. Test compound of 0.1 ml/kg was used. Detailed method was reporated in J. Med. Chem. 30. 1279-87(1987).
SMILES,activation at 0.003 mg [1] [%],activation at 0.003 mg [2] [%],change in vivo at 0.01 mg/kg (anesthetized cats; read-out: HR (%)) [%],change in vivo at 0.01 mg/kg (anesthetized cats; read-out: LV dp/dt (%)) [%],change in vivo at 0.01 mg/kg (anesthetized cats; read-out: LVP (%)) [%],change in vivo at 0.01 mg/kg (anesthetized cats; read-out: SBP (%)) [%],change in vivo at 0.01 mg/kg (anesthetized cats; read-out: dBP) [%],change in vivo at 0.01 mg/kg (anesthetized cats; read-out: mBP (%)) [%],change in vivo at 0.03 mg/kg (anesthetized cats; read-out: HR (%)) [%],change in vivo at 0.03 mg/kg (anesthetized cats; read-out: LV dp/dt (%)) [%],change in vivo at 0.03 mg/kg (anesthetized cats; read-out: LVP (%)) [%],change in vivo at 0.03 mg/kg (anesthetized cats; read-out: SBP (%)) [%],change in vivo at 0.03 mg/kg (anesthetized cats; read-out: dBP) [%],change in vivo at 0.03 mg/kg (anesthetized cats; read-out: mBP (%)) [%],change in vivo at 0.1 mg/kg (anesthetized cats; read-out: HR (%)) [%],change in vivo at 0.1 mg/kg (anesthetized cats; read-out: LV dp/dt (%)) [%],change in vivo at 0.1 mg/kg (anesthetized cats; read-out: LVP (%)) [%],change in vivo at 0.1 mg/kg (anesthetized cats; read-out: SBP (%)) [%],change in vivo at 0.1 mg/kg (anesthetized cats; read-out: dBP) [%],change in vivo at 0.1 mg/kg (anesthetized cats; read-out: mBP (%)) [%],also measured
"Cc1cn(-c2cc(C)c3c(c2)CSC(=O)N3)cn1 [8-methyl-6-(4-methylimidazol-1-yl)(4H)-3,1-benzothiazin-2-one]",26.5,3.3,4.2,33.3,3.3,0,0,0,7.3,58.4,5.7,-3.8,-4,-4.5,12.6,75,8.8,-6.5,-12,-16.1,"ED 30 (developed tension of papillary muscle) [1]: 5.0 µg; ED 30 (developed tension of papillary muscle) ([1]; listed as 8-methyl-6-(4-methylimidazol-1-)-(4H)-3,1-benzothiazin-2-one): 0.6 µg; change of sinus rate (%) ([2]; at the ED 30 dose): +3.5%; change of sinus rate (%) ([2]; at the ED 30 dose, listed as 8-methyl-6-(4-methylimidazol-1-)-(4H)-3,1-benzothiazin-2-one): +7.1%; change of sinus rate (%) ([2]; dose 0.1 ug): +2.5%; change of sinus rate (%) ([2]; dose 0.3 ug): +1.6%; change of sinus rate (%) ([2]; dose 1.0 ug): +2.5%"
"O=C1Nc2ccc(-n3ccnc3)cc2CS1 [6-(imidazol-1-yl)-(4H)-3,1-benzothiazin-2-one]",–,–,1.6,0,0,-2.4,0,-1.2,4.7,20,9.9,-4.8,-7.8,-5.8,7,39.6,18.9,-19.1,-19.1,-19.6,activation at 0.01 mg [1]: 10.7%; activation at 0.03 mg [1]: 22.7%
"Cc1cn(-c2cc(C)c3c(c2)CSC(=S)N3)cn1 [8-methyl-6-(4-methylimidazol-1-yl)-(4H)-3,1-benzothiazin-2-thione]",–,–,0,6,1.2,-2.3,-5.1,-3.3,1.6,20,1.8,-2.3,-7.7,-5.3,10.9,53.3,2,-3.1,-11.5,-7.6,–
"S=C1Nc2ccc(-n3ccnc3)cc2CS1 [6-(imidazol-1-yl)-(4H)-3,1-benzothiazin-2-thione]",–,–,-1.1,8.3,2,2,-3.2,-2,-0.8,16.6,4,3,-3.3,0,0.6,25,5.7,3,-7.4,-3.6,–
"CCc1nc(C)cn1-c1ccc2c(c1)COC(=O)N2 [6-(2-ethyl-4-methylimidazol-1-yl)-(4H)-3,1-benzoxazin-2-one]",3.45,0,–,–,–,–,–,–,–,–,–,–,–,–,–,–,–,–,–,–,activation at 0.001 mg [1]: 0.68%; activation at 0.01 mg [1]: 12.5%; activation at 0.03 mg [1]: 14.7%; activation at 0.001 mg ([2]; dose 1.0 ug): 0%; activation at 0.01 mg [2]: 0.83%; activation at 0.03 mg [2]: 1.65%; change of sinus rate (%) ([2]; at the ED 30 dose): +6.82%
"Cc1cn(-c2ccc3c(c2)COC(=O)N3)c(C)n1 [6-(2,4-dimethylimidazol-1-yl)-(4H)-3,1-benzoxazin-2-one]",3.7,0,–,–,–,–,–,–,–,–,–,–,–,–,–,–,–,–,–,–,activation at 0.001 mg [1]: 0%; activation at 0.01 mg [1]: 10.3%; activation at 0.03 mg [1]: 15.2%; activation at 0.001 mg ([2]; dose 1.0 ug): 0%; activation at 0.01 mg [2]: 0%; activation at 0.03 mg [2]: 1.67%; change of sinus rate (%) ([2]; at the ED 30 dose): +2.56%
